SMILES strings stand for the structures.

This note sets out measurements from patent US20200281873A1, “Adamantane or Bicyclic Monoterpenoid Derivatives for Use in the Treatment of Leishmaniasis” (Commissariat a l'Energie Atomique et aux Energies …, priority 2017, published 2020).

In assay [1] the test system is Leishmania infantum axenic amastigotes. Nature of the assay: Evaluation on Leishmania donovani infantum axenic amastigotes (SYBR Green I). It is filed as cell-based. Conditions: Leishmania infantum; Table II; 3 different experiments, SYBR Green I method; read-out: IC50 axenic. The method, then:
Protocol for Evaluation on Leishmania donovani infantum Axenic Amastigotes
Amastigote forms of the parasite were suspended to yield 10^7 parasitic cells mL^−1. The maximum final compound concentration used was 100 μM. Triplicates were used for each concentration. Cultures were incubated at 37° C. for 72 h in the dark and under a 5% CO2 atmosphere, then the viability of the amastigotes was assessed using the SYBR® Green I (Invitrogen, France) incorporation method. Parasite growth was determined by using SYBR® Green I, a dye with marked fluorescence enhancement upon contact with parasite DNA. Parasites were lysed and quantified by Direct PCR-Cell Genotyping without DNA isolation protocol (Euromedex, France). 10 μL of lysed parasite solution from each well was added to 40 μL of PCR-Cell reagent containing the SYBR® green I in a qPCR plate of 96 wells, and the contents were mixed. Fluorescence was measured with Mastercycler® ep realplex (Eppendorf, France). Measured fluorescence was compared to that from the range obtained with different parasite densities. The antileishmanial activity was expressed as IC50 in μM (concentration of drug inhibiting 50% of the parasite growth, comparatively to the controls treated with the excipient only).

Assay [2] has as its system L. donovani (MHOM/ET/67/HU3) amastigotes. Nature of the assay: In vivo antileishmanial evaluation, Leishmania donovani/Balb/c mouse model (liver parasite load). The settings on record: for % reduction of parasite burden in the liver / LDU ± SD (parasites in the liver): Balb/c mice. The method, then: Compounds VP343, VP370 were evaluated in vivo for their antileishmanial properties by oral and intravenous route on the Leishmania donovani/Balb/c mouse model, comparatively to miltefosine, used as reference drug, according to a previously described protocol (Balaraman et al., 2015). Six- to eight-week-old Balb/c mice (Élevages Janvier, Le Genest Saint Isle, France) were infected intravenously on day 1 with 10^7 L. donovani (MHOM/ET/67/HU3) amastigotes derived from the spleen of hamsters and randomly sorted into four groups of 10 mice and one group of 12 mice as infected controls but not treated. The treatment administered orally or intravenously, started one week post-infection, on day 8, and continued for 5 consecutive days. At day 15, all groups of mice were autopsied and livers and spleens were weighed. Parasite load in the liver was determined by counting the number of amastigotes/500 liver cells in Giemsa-stained impression smears prepared from the liver and applying Stauber's formula. Three researchers counted the slides independently and the results are expressed as the mean values±SD. The parasite burden of treated groups and controls were compared using Student's t-test or the Kruskal-Wallis nonparametric analysis of variance test for comparing two groups. Significance was established for a P value<0.05.

Where [3] appears, read: intravenous route, 10 mg/kg/day × 5.

For the compound `COc1ccc(Br)cc1CN(C)C12CC3CC(CC(C3)C1)C2` [VP343], the concentration for half-maximal inhibition (IC50) in assay [1] was 9.29 µM. Also, the “Activity in vivo by intravenous route (in words)” value in assay [2] (10 mg/kg/day×5 intravenous, Dunn's multiple comparisons test) is on record as “significantly active”. Moreover, the “% reduction of parasite burden in the liver” value in assay [2] (setting [3]) stood at 42.4%; in assay [2] (oral route, 10 mg/kg/day × 5), 60.2%; in assay [2] (oral route, 20 mg/kg/day × 5), 70.8%. The “LDU ± SD (parasites in the liver)” value is on record as 0.19 ± 0.09 ×10^8 in assay [2] (setting [3]); 0.49 ± 0.07 ×10^9 in assay [2] (oral route, 10 mg/kg/day × 5, autopsy day 15); 0.36 ± 0.08 ×10^9 in assay [2] (oral route, 20 mg/kg/day × 5, autopsy day 15). In assay [2] (VP343 and VP370 at 20 mg/kg/day×5, VP343 also at 10 mg/kg/day×5, Tukey's multiple comparisons test), the “Activity in vivo by oral route (in words)” value is listed as “significantly active”.
